In patent publication US5077301A, “4-(hydroxydiphenylmethyl)-1-piperidylphenylalkane derivatives as antihistamines and methods of treatment of an allergic response” (Schaper & Bruemmer GmbH & Co. KG, priority 1989, dated 1991):
In brackets after ≈: the same amount, converted by molar mass.

Columns and labels:
[1] = tested on: isolated ileum of guinea pigs; assay: Spasmolysis of histamine-induced contraction on isolated guinea pig ileum, organ bath; assay type: cell-based; conditions: Cavia porcellus; histamine dihydrochloride as spasmogen, 0.2-2 μg/ml; at least six individual tests; read-out: ED50 on guinea pig ileum
Method: (§1) Experiments were carried out on the isolated ileum and on the isolated trachea of guinea pigs in a typical manner in vitro in a suitable organ bath. Histamine dihydrochloride was used as a spasmogen in a final concentration of 0.2-2 μg/ml, depending on the organ preparation. The activity of the compounds was determined from the reactive spasmolysis, i.e., the relative decrease in the force of contractions compared with zero dose. The concentration-action relation was calculated from the non-linear regression between dose and action from at least six individual tests.

[2] = tested on: isolated trachea of guinea pigs; assay: Spasmolysis of histamine-induced contraction on isolated guinea pig trachea, organ bath; assay type: cell-based; conditions: Cavia porcellus; histamine dihydrochloride as spasmogen, 0.2-2 μg/ml; at least six individual tests; read-out: ED50 on the isolated tracheal preparation
Method: as §1

[3] = tested on: histamine-induced skin weal in the mouse; assay: Duration of inhibition of histamine-induced skin weal in the mouse after a single oral dose; assay type: in vivo; conditions: oral administration of a comparable dose (to 6 mg/kg)
Method: The experiments were carried out on male NMRI mice with a body weight of 25-30 g. […] The dyestuff concentration determined by photometry in a defined area of skin can be designated a measure of the antihistamine activity.

| IC50 [1] | IC50 [2] | Compound | antihistamine action after 4 hours [3] |
| --- | --- | --- | --- |
| 0.029 mg/L (≈ 0.0748 µM) | 3.5 mg/L (≈ 9.03 µM) | COc1cccc(CN2CCC(C(O)(c3ccccc3)c3ccccc3)CC2)c1 [[4-(Hydroxydiphenylmethyl)-1-piperidyl]-(3-methoxyphenyl)methane] |  |
| 0.062 mg/L (≈ 0.131 µM) | 4.1 mg/L (≈ 8.69 µM) | CC(C)(C)c1ccc(C(O)CCCN2CCC(C(O)(c3ccccc3)c3ccccc3)CC2)cc1 (stereo not drawn) [terfenadine, α-[4-(1,1-Dimethylethyl)phenyl]-4-(hydroxydiphenylmethyl)-1-piperidinobutanol] | no longer possible to measure reliably an antihistamine action |
